Where a SMILES comes first, the peptide text is derived from it. [ ]: non-standard residue; d: D form. The star is where a group is joined. d(aIle) = CC[C@H](C)[C@@H](N)C(=O)O; dOrn = NCCC[C@@H](N)C(=O)O; dDab = NCC[C@@H](N)C(=O)O; Octanoyl = CCCCCCCC(=O)*; Orn = NCCC[C@H](N)C(=O)O; Dab = NCC[C@H](N)C(=O)O
Columns and labels:
[1] = tested on: A. baumannii; type: cell-based, Acinetobacter baumannii; details: 18 h
Protocol: (§1) IV. Antimicrobial testing
(§2) All minimum inhibitory concentrations (MICs) were determined according to Clinical and Standards Laboratory Institute (CLSI) guidelines. Briefly, peptides were dissolved in Muller-Hinton Broth (MHB) and serial dilutions made across a 96 well plate. Each well was inoculated with a suspension of the required bacterial strain to reach a final inoculum of 5 x 10^5 colony forming units per mL. The MIC was taken as the lowest concentration with no visible growth after 18 hours.
(§3) V. Additional information on multidrug resistant strains
(§4) Organism Resistant Susceptible
Acinetobacter baumannii Cefotaxime Imipenem
Isolated from sewage contaminated Tetracycline Colistin water (Tripoli, Lebanon). Ofloxacin Tobramycin
(§5) Acinetobacter baumannii ACM 11 Ceftazimide
(§6) Acinetobacter baumannii ACM 29 Ceftazimide
(§7) Isolated from peritoneum of 3-year- Imipenem

[2] = tested on: A. baumannii ACM 11; type: cell-based, Acinetobacter baumannii; details: ACM 11, 18 h
Protocol: as §1, §2, §3, §4, §5

[3] = tested on: A. baumannii ACM 29; type: cell-based, Acinetobacter baumannii; details: ACM 29, 18 h
Protocol: as §1, §2
V. Additional information on multidrug resistant strains […]
Organism Resistant Susceptible […]
as §6, §7

[4] = tested on: E. cloacae; type: cell-based, Enterobacter cloacae; details: 18 h
Protocol: as §1, §2

[5] = tested on: K. pneumoniae IMP 170; type: cell-based, Klebsiella pneumoniae; details: IMP 170, 18 h
Protocol: as §1, §2

[6] = tested on: K. pneumoniae IMP 177; type: cell-based, Klebsiella pneumoniae; details: IMP 177, 18 h
Protocol: as §1, §2

[7] = tested on: K. pneumoniae IMP 204; type: cell-based, Klebsiella pneumoniae; details: IMP 204, 18 h
Protocol: as §1, §2

[8] = tested on: K. pneumoniae IMP 216; type: cell-based, Klebsiella pneumoniae; details: IMP 216, 18 h
Protocol: as §1, §2

[9] = tested on: K. pneumoniae IMP 485; type: cell-based, Klebsiella pneumoniae; details: IMP 485, 18 h
Protocol: as §1, §2

[10] = tested on: K. pneumoniae; type: cell-based, Klebsiella pneumoniae; details: 18 h
Protocol: as §1, §2

[11] = tested on: P. pseudoalcaligenes; type: cell-based, Pseudomonas pseudoalcaligenes; details: for Peptide MIC: 18 h; for antimicrobial activity relative to Oct-TriA1: against P. pseudoalcaligenes
Protocol: as §1, §2

[12] = tested on: Equine erythrocytes; type: cell-based, horse; details: red cells of equine, 100 μg mL^–1
Protocol: Having assessed the antimicrobial activity of peptides 1–8 we next proceeded to assess their haemolytic activities (Table 2). Haemolytic activity was tested at 100 μg mL^–1, as the concentration required for haemolysis should be higher than antimicrobial MICs. Equine erythrocytes were exposed to peptides 1–8 and incubated for 30 min at 37 °C (Table 2). […] The low haemolytic activity observed for Oct-TriA2 (2,8-D-Lys, 7-Lys) (8) is consistent with its poor antimicrobial activity. […]
VI. Haemolytic activity assays
A 96-well plate was first prepared to contain phosphate-buffered saline (PBS) solutions (100 μL) of tridecaptin analogues 1 – 8 (200 μg/mL) (experiments run in triplicate). 0.1 % Triton X-100 (100 μL) was used as a positive control, while PBS (100 μL) was used as a blank. After the plate had been prepared, defibrinated horse blood (0.5 mL, VWR International) was diluted with phosphate-buffered saline (9.5 mL) and gently shaken. The resulting mixture was centrifuged (5600 rpm, 5 min) using a Thermo Scientific Heraeus Labofuge 200 centrifuge and the supernatant carefully removed. This process was repeated three more times to remove any free hemoglobin. The resulting erythrocyte pellet was gently resuspended in 9.5 mL of PBS. Aliquots of the resulting mixture (100 μL) were added to the appropriate wells on the 96-well plate using a multichannel pipette and the plate incubated at 37 °C for 30 min. The samples were gently mixed by pipetting, and 20 μL of each was added to 200 μL of PBS. Once again, the samples were gently mixed. The diluted samples were then centrifuged (7000 rpm, 5 min) using a SciSpin MINI Microfuge. Supernatant (150 μL) from each sample was added to a new 96-well plate. The absorbance of each sample was individually measured at 415 nm using a Denovix DS-11 FX+ Spectrophotometer. Percent hemolysis of the peptides was calculated relative to Triton X- 100, while the PBS negative control was used as a blank.

[13] = tested on: panel of Gram-negative bacteria; assay: MIC, summary over the panel of strains; type: cell-based
Excerpt: Previous studies have shown that the tridecaptins have strong activity against clinically relevant Gram-negative strains.[8],[14] This includes A. baumannii and Enterobacteriaceae such as Klebsiella pneumoniae and Enterobacter spp., however P. aeruginosa is less susceptible. The World Health Organization (WHO) currently lists carbapenemase-producing strains of these Gram-negative bacteria as critical priority pathogens. We therefore decided to synthesize a library of novel tridecaptin analogues containing conservative substitutions at positions 2, 7, 8 and/or 12, and evaluate their activity against a panel of these strains (Table 1). This panel of Gram-negative bacteria contains environmental samples isolated from sewage contaminated water in Lebanon, as well as several strains isolated from patients at clinical settings. […]
MilliQ water and solvent B = 0.1 % TFA in ACN. […] High resolution mass spectrometry (HRMS) spectra of all peptides were recorded by Analytical Services and Environmental Projects (ASEP) at Queen’s University Belfast on a Waters LCT Premier ToF mass spectrometer using the electrospray ionisation (ESI) technique. […]
All minimum inhibitory concentrations (MICs) were determined according to Clinical and Standards Laboratory Institute (CLSI) guidelines. […]

SMILES	Peptide MIC [1] [μg mL^–1]	Peptide MIC [2] [μg mL^–1]	Peptide MIC [3] [μg mL^–1]	Peptide MIC [4] [μg mL^–1]	Peptide MIC [5] [μg mL^–1]	Peptide MIC [6] [μg mL^–1]	Peptide MIC [7] [μg mL^–1]	Peptide MIC [8] [μg mL^–1]	Peptide MIC [9] [μg mL^–1]	Peptide MIC [10] [μg mL^–1]	Peptide MIC [11] [μg mL^–1]	% haemolysis [12] [%]	antimicrobial activity relative to Oct-TriA1 (1) ([13]; against most strains tested)	antimicrobial activity relative to Oct-TriA1 [11]	antimicrobial activity at the highest concentrations tested ([13]; highest concentration tested 100 μg mL^–1, all strains of the panel)
CCCCCCCC(=O)N[C@@H](C(=O)N[C@H](CCN)C(=O)NCC(=O)N[C@H](CO)C(=O)N[C@H](Cc1c[nH]c2ccccc12)C(=O)N[C@@H](CO)C(=O)N[C@@H](CCN)C(=O)N[C@H](CCN)C(=O)N[C@@H](Cc1ccccc1)C(=O)N[C@@H](CCC(=O)O)C(=O)N[C@H](C(=O)N[C@@H](C(=O)N[C@@H](C)C(=O)O)C(C)C)C(C)C)C(C)C [Peptide 2, Oct-TriA2] (Octanoyl-[dV][dDab]G[dS][dW]S[Dab][dDab]FEV[dV]A-OH)	25	100	50	6.25	12.5	25	12.5	12.5	12.5	12.5	50	52.1	two- to four-fold less active	–	–
CCCCCCCC(=O)N[C@@H](C(=O)N[C@H](CCCN)C(=O)NCC(=O)N[C@H](CO)C(=O)N[C@H](Cc1c[nH]c2ccccc12)C(=O)N[C@@H](CO)C(=O)N[C@@H](CCCN)C(=O)N[C@H](CCN)C(=O)N[C@@H](Cc1ccccc1)C(=O)N[C@@H](CCC(=O)O)C(=O)N[C@H](C(=O)N[C@@H](C(=O)N[C@@H](C)C(=O)O)[C@@H](C)CC)C(C)C)C(C)C [Peptide 3, Oct-TriA1 (2-D-Orn, 7-Orn)] (Octanoyl-[dV][dOrn]G[dS][dW]S[Orn][dDab]FEV[d(aIle)]A-OH)	100	50	50	25	25	25	25	25	25	100	12.5	66.7	–	enhanced antimicrobial activity	–
CCCCCCCC(=O)N[C@@H](C(=O)N[C@H](CCCCN)C(=O)NCC(=O)N[C@H](CO)C(=O)N[C@H](Cc1c[nH]c2ccccc12)C(=O)N[C@@H](CO)C(=O)N[C@@H](CCCCN)C(=O)N[C@H](CCN)C(=O)N[C@@H](Cc1ccccc1)C(=O)N[C@@H](CCC(=O)O)C(=O)N[C@H](C(=O)N[C@@H](C(=O)N[C@@H](C)C(=O)O)[C@@H](C)CC)C(C)C)C(C)C [Peptide 4, Oct-TriA1 (2-D-Lys, 7-Lys)] (Octanoyl-[dV][dK]G[dS][dW]SK[dDab]FEV[d(aIle)]A-OH)	50	25	50	25	25	25	25	25	25	50	25	71.4	–	enhanced antimicrobial activity	–
CCCCCCCC(=O)N[C@@H](C(=O)N[C@H](CCCN)C(=O)NCC(=O)N[C@H](CO)C(=O)N[C@H](Cc1c[nH]c2ccccc12)C(=O)N[C@@H](CO)C(=O)N[C@@H](CCCN)C(=O)N[C@H](CCCN)C(=O)N[C@@H](Cc1ccccc1)C(=O)N[C@@H](CCC(=O)O)C(=O)N[C@H](C(=O)N[C@@H](C(=O)N[C@@H](C)C(=O)O)[C@@H](C)CC)C(C)C)C(C)C [Peptide 5, Oct-TriA1 (2,8-D-Orn, 7-Orn)] (Octanoyl-[dV][dOrn]G[dS][dW]S[Orn][dOrn]FEV[d(aIle)]A-OH)	12.5	50	50	6.25	25	25	25	6.25	25	12.5	50	77.5	–	–	–
CCCCCCCC(=O)N[C@@H](C(=O)N[C@H](CCCCN)C(=O)NCC(=O)N[C@H](CO)C(=O)N[C@H](Cc1c[nH]c2ccccc12)C(=O)N[C@@H](CO)C(=O)N[C@@H](CCCCN)C(=O)N[C@H](CCCCN)C(=O)N[C@@H](Cc1ccccc1)C(=O)N[C@@H](CCC(=O)O)C(=O)N[C@H](C(=O)N[C@@H](C(=O)N[C@@H](C)C(=O)O)[C@@H](C)CC)C(C)C)C(C)C [Peptide 6, Oct-TriA1 (2,8-D-Lys, 7-Lys)] (HELM PEPTIDE1{[CCCCCCCC(=O)[*:2]].[dV].[dK].G.[dS].[dW].S.K.[dK].F.E.V.[CC[C@H](C)[C@@H](N[*:1])C(=O)[*:2]].A}$$$$V2.0)	6.25	25	25	25	50	25	50	25	25	50	100	86.4	–	–	–
CCCCCCCC(=O)N[C@@H](C(=O)N[C@H](CCCCN)C(=O)NCC(=O)N[C@H](CO)C(=O)N[C@H](Cc1c[nH]c2ccccc12)C(=O)N[C@@H](CO)C(=O)N[C@@H](CCCCN)C(=O)N[C@H](CCCCN)C(=O)N[C@@H](Cc1ccccc1)C(=O)N[C@@H](CCC(=O)O)C(=O)N[C@H](C(=O)N[C@@H](C(=O)N[C@@H](C)C(=O)O)C(C)C)C(C)C)C(C)C [Peptide 8, Oct-TriA2 (2,8-D-Lys, 7-Lys)] (HELM PEPTIDE1{[CCCCCCCC(=O)[*:2]].[dV].[dK].G.[dS].[dW].S.K.[dK].F.E.V.[dV].A}$$$$V2.0)	>100	>100	>100	>100	>100	>100	>100	>100	>100	>100	>100	2.8	–	–	no antimicrobial activity

From article PMC6457190, “Tridecaptin-inspired antimicrobial peptides with activity against multidrug-resistant Gram-negative bacteria” (MedChemComm, 2019)
